Data taken from patent US20090176817A1, “Method of Treatment of Diarrhea-Predominant Irritable Bowel Syndrome in a Subject” (priority 2005, published 2009).

System: diarrhea-predominant IBS subjects
Assay: Study S241.3.009: weekly diary questions on adequate relief
Format: in vivo, human
Details: ITT, 2 mg TID; for Number of months a subject was a responder: Three months (IBS symptoms) / Number of months a subject was a responder: Two months (Abdominal pain/discomfort) / Number of months a subject was a responder: Two months (Abnormal bowel habits) / Number of months a subject was a responder: Two months (IBS symptoms) / Number of months a subject was a responder: Zero months (Abdominal pain/discomfort) / Number of months a subject was a responder: Zero months (Abnormal bowel habits) / Number of months a subject was a responder: Zero months (IBS symptoms) / Number of months a subject was a responder: One month (Abdominal pain/discomfort) / Number of months a subject was a responder: One month (Abnormal bowel habits) / Number of months a subject was a responder: One month (IBS symptoms) / Number of months a subject was a responder: Three months (Abdominal pain/discomfort) / Number of months a subject was a responder: Three months (Abnormal bowel habits): Months 1 to 3, monthly LOCF; for Overall responder rate, adequate relief of IBS symptoms / Overall responder rate, adequate relief of abdominal pain/discomfort / Overall responder rate, adequate relief of abnormal bowel habits: 26-week treatment period, observed case
Description: Study S241.3.009 was a Phase III, a double-blind, placebo-controlled, randomized, multinational study to investigate the safety and efficacy of 2 mg TID of cilansetron over 26 weeks in diarrhea-predominant IBS subjects. The study was conducted in 146 multinational study centers. A total of 1307 subjects consented to participate, and 806 subjects were randomized. A total of 792 subjects were analyzed for efficacy and 799 subjects were analyzed for safety. Diagnosis and main criteria for inclusion were IBS subjects satisfying the Rome I criteria (1992); the diarrhea-predominant sub-population of the Rome II criteria; and a minimum abdominal pain/discomfort, stool frequency and consistency determined during the run-in period. Subjects were treated with cilansetron 2 mg tablets given orally TID or matching placebo tablets given orally TID for 26 weeks.
The primary efficacy parameter was the overall response rate for IBS symptoms, based on the weekly question concerning adequate relief of IBS symptoms (abdominal pain/discomfort, abnormal bowel habits) over the 26 weeks period. A responder was a subject who responded “yes” at least 50% of the time during his/her treatment period, with minimum treatment duration of four weeks. The two main secondary efficacy parameters were overall responder rate based on the weekly question on adequate relief of abdominal pain/discomfort and abnormal bowel habits during the 26-week treatment period. The onset of action of cilansetron was also examined using daily diary data (stool frequency, and ratings of urgency and severity) during the initial 8 weeks of trial participation. An additional key secondary efficacy parameter was the number of months (one month equals four weeks) up to six months (24-weeks) that a subject was a responder for IBS symptoms, where a responder was defined as a subject who answered the weekly question with “yes” at least twice for that month. The responder rate for the weekly diary questions on adequate relief at each month and all months, the adequate relief rate, the number of subjects with adequate relief by week, daily diary questions, IBS-QOL scores, and the interruption of activities were also assessed. Safety was evaluated by physical examination, ECG, vital signs, laboratory evaluations, concomitant medications, and AEs.
Studies S24 1.3.OO6, S24 1.3.0 1 1, and S24 1.3.009 used the following efficacy measurements: • The subjects answered the following three questions with “yes” or “no” using a phone diary at the end of each week: • a) During the last week, did you experience adequate relief of your IBS symptoms, such as abdominal pain, abdominal discomfort, abnormal bowel habits? • b) During the last week, did you experience adequate relief of your abdominal pain and/or discomfort? • c) During the last week, did you experience adequate relief of your abnormal bowel habits? • The subjects rated the following symptoms using the phone diary at the end of each day: • abdominal pain/discomfort (five-point scale); • stool consistency (seven-point Bristol Stool Scale); • stool frequency (number of bowel movements each day); • urgency (five-point scale); • straining (yes or no); • feeling of incomplete defecation (yes or no); • bloating or feeling of abdominal distension (five-point scale). • In Studies S241 A006 and S241.3.009, subjects completed the IBS-QOL Survey at Baseline (Day 1) and at the end of treatment. In Study S24 1.3.0 1 1, subjects completed the IBS-QOL Survey at Baseline (Day 1), at the end of the three-month treatment period, and at the end of rerandomized treatment.
In all three pivotal efficacy studies, the primary and main secondary efficacy parameters were based on the weekly diary questions on adequate relief and included the following: • 1. Number of months (one month equals four weeks) that a subject was a responder for the weekly diary questions on adequate relief. […]

[1] = Baseline severity of IBS: non-severe
[2] = Baseline severity of IBS: severe
[3] = Duration of IBS: >24 months to ≦48 months, monthly LOCF imputation

Cc1nccn1C[C@H]1CCc2c(c3cccc4c3n2CCC4)C1=O [Cilansetron, (R)-(−)-4,5,6,8,9,10-hexahydro-10-[(2-methyl-1H-imidazol-1-yl)methyl]-11H-pyrido-[3,2,1-jk]-carbazol-11-one]
Number of months a subject was a responder: Three months (IBS symptoms) (Baseline BMI: <30 kg/m^2): 131 (40) n (%)
Number of months a subject was a responder: Two months (Abdominal pain/discomfort) (Baseline BMI: <30 kg/m^2): 58 (18) n (%)
Number of months a subject was a responder: Two months (Abnormal bowel habits) (Baseline BMI: <30 kg/m^2): 69 (21) n (%)
Number of months a subject was a responder: Two months (IBS symptoms) (Baseline BMI: <30 kg/m^2): 64 (19) n (%)
Number of months a subject was a responder: Zero months (Abdominal pain/discomfort) (Baseline BMI: <30 kg/m^2): 82 (25) n (%)
Number of months a subject was a responder: Zero months (Abnormal bowel habits) (Baseline BMI: <30 kg/m^2): 78 (24) n (%)
Number of months a subject was a responder: Zero months (IBS symptoms) (Baseline BMI: <30 kg/m^2): 86 (26) n (%)
Overall responder rate, adequate relief of IBS symptoms (Baseline BMI: ≧30 kg/m^2): 27 (42) n (%)
Overall responder rate, adequate relief of abdominal pain/discomfort (Baseline BMI: ≧30 kg/m^2): 32 (49) n (%)
Overall responder rate, adequate relief of abnormal bowel habits (Baseline BMI: ≧30 kg/m^2): 33 (51) n (%)
Number of months a subject was a responder: One month (Abdominal pain/discomfort) (Baseline BMI: ≧30 kg/m^2): 10 (15) n (%)
Number of months a subject was a responder: One month (Abnormal bowel habits) (Baseline BMI: ≧30 kg/m^2): 10 (15) n (%)
Number of months a subject was a responder: One month (IBS symptoms) (Baseline BMI: ≧30 kg/m^2): 6 (9) n (%)
Number of months a subject was a responder: Three months (Abdominal pain/discomfort) (Baseline BMI: ≧30 kg/m^2): 20 (31) n (%)
Number of months a subject was a responder: Three months (Abnormal bowel habits) (Baseline BMI: ≧30 kg/m^2): 21 (32) n (%)
Number of months a subject was a responder: Three months (IBS symptoms) (Baseline BMI: ≧30 kg/m^2): 19 (29) n (%)
Number of months a subject was a responder: Two months (Abdominal pain/discomfort) (Baseline BMI: ≧30 kg/m^2): 12 (18) n (%)
Number of months a subject was a responder: Two months (Abnormal bowel habits) (Baseline BMI: ≧30 kg/m^2): 14 (22) n (%)
Number of months a subject was a responder: Two months (IBS symptoms) (Baseline BMI: ≧30 kg/m^2): 16 (25) n (%)
Number of months a subject was a responder: Zero months (Abdominal pain/discomfort) (Baseline BMI: ≧30 kg/m^2): 23 (35) n (%)
Number of months a subject was a responder: Zero months (Abnormal bowel habits) (Baseline BMI: ≧30 kg/m^2): 20 (31) n (%)
Number of months a subject was a responder: Zero months (IBS symptoms) (Baseline BMI: ≧30 kg/m^2): 24 (37) n (%)
Overall responder rate, adequate relief of IBS symptoms [1]: 149 (61) n (%)
Overall responder rate, adequate relief of abdominal pain/discomfort [1]: 150 (61) n (%)
Overall responder rate, adequate relief of abnormal bowel habits [1]: 161 (65) n (%)
Number of months a subject was a responder: One month (Abdominal pain/discomfort) [1]: 42 (17) n (%)
Number of months a subject was a responder: One month (Abnormal bowel habits) [1]: 31 (13) n (%)
Number of months a subject was a responder: One month (IBS symptoms) [1]: 37 (15) n (%)
Number of months a subject was a responder: Three months (Abdominal pain/discomfort) [1]: 102 (41) n (%)
Number of months a subject was a responder: Three months (Abnormal bowel habits) [1]: 104 (42) n (%)
Number of months a subject was a responder: Three months (IBS symptoms) [1]: 95 (39) n (%)
Number of months a subject was a responder: Two months (Abdominal pain/discomfort) [1]: 41 (17) n (%)
Number of months a subject was a responder: Two months (Abnormal bowel habits) [1]: 54 (22) n (%)
Number of months a subject was a responder: Two months (IBS symptoms) [1]: 51 (21) n (%)
Number of months a subject was a responder: Zero months (Abdominal pain/discomfort) [1]: 61 (25) n (%)
Number of months a subject was a responder: Zero months (Abnormal bowel habits) [1]: 57 (23) n (%)
Number of months a subject was a responder: Zero months (IBS symptoms) [1]: 63 (26) n (%)
Overall responder rate, adequate relief of IBS symptoms [2]: 84 (57) n (%)
Overall responder rate, adequate relief of abdominal pain/discomfort [2]: 88 (59) n (%)
Overall responder rate, adequate relief of abnormal bowel habits [2]: 91 (61) n (%)
Number of months a subject was a responder: One month (Abdominal pain/discomfort) [2]: 19 (13) n (%)
Number of months a subject was a responder: One month (Abnormal bowel habits) [2]: 18 (12) n (%)
Number of months a subject was a responder: One month (IBS symptoms) [2]: 18 (12) n (%)
Number of months a subject was a responder: Three months (Abdominal pain/discomfort) [2]: 56 (38) n (%)
Number of months a subject was a responder: Three months (Abnormal bowel habits) [2]: 60 (41) n (%)
Number of months a subject was a responder: Three months (IBS symptoms) [2]: 54 (36) n (%)
Number of months a subject was a responder: Two months (Abdominal pain/discomfort) [2]: 29 (20) n (%)
Number of months a subject was a responder: Two months (Abnormal bowel habits) [2]: 29 (20) n (%)
Number of months a subject was a responder: Two months (IBS symptoms) [2]: 29 (20) n (%)
Number of months a subject was a responder: Zero months (Abdominal pain/discomfort) [2]: 44 (30) n (%)
Number of months a subject was a responder: Zero months (Abnormal bowel habits) [2]: 41 (28) n (%)
Number of months a subject was a responder: Zero months (IBS symptoms) [2]: 47 (32) n (%)
Number of months a subject was a responder during Months 1 to 3: Abdominal pain/discomfort, One month [3]: 14 (15) n (%)
Number of months a subject was a responder during Months 1 to 3: Abdominal pain/discomfort, Three months [3]: 37 (39) n (%)
Number of months a subject was a responder during Months 1 to 3: Abdominal pain/discomfort, Two months [3]: 19 (20) n (%)
Number of months a subject was a responder during Months 1 to 3: Abdominal pain/discomfort, Zero months [3]: 26 (27) n (%)
Number of months a subject was a responder during Months 1 to 3: Abnormal bowel habits, One month [3]: 11 (11) n (%)
Number of months a subject was a responder during Months 1 to 3: Abnormal bowel habits, Three months [3]: 36 (38) n (%)
Number of months a subject was a responder during Months 1 to 3: Abnormal bowel habits, Two months [3]: 25 (26) n (%)
Number of months a subject was a responder during Months 1 to 3: Abnormal bowel habits, Zero months [3]: 24 (25) n (%)
